Data reported in patent US12128013B2, “Toxic aldehyde related diseases and treatment” (Aldeyra Therapeutics, Inc., priority 2013, dated 2024).
“Also recorded” adds a separate entry of the source.

How the values were obtained:
[1] = Reaction with MDA salt in glyceryl trioleate / Captisol-PBS / linoleic acid, monitored by LC/MS; conditions: 0.064 mmol compound and MDA, ambient temperature
Procedure: To five separate reaction vials was added Compounds 1, 2, 12, 14, and 16, respectively (0.064 mmol), MDA salt (22.7% MDA, 0.064 mmol), and glyceryl trioleate (600 mg). To the mixture was added 20 wt % Capitsol in aqueous PBS (˜2.5 ml), followed by linoleic acid (600 mg). The reaction mixture was stirred vigorously at ambient temperature and monitored by LC/MS. […] Other MDA adducts were also formed at different time points of the reactions.

[2] = tested on: contact dermatitis; assay: Contact dermatitis, phorbol myristate acetate (PMA) model, pinna thickness; format: in vivo, mice; conditions: single dose, FIG. 5A
Procedure: To determine the efficacy of Compound 9 in treating contact dermatitis, phorbol myristate acetate (“PMA”) was applied topically (2.5 μg in 20 μL) to both the anterior and posterior portions of the right pinna of mice (N=10 per group). As a control, the left pinna received 20 μL of ethanol (PMA excipient) to both the anterior and posterior portions. Six hours after the PMA application, both the right and left pinna thickness was determined. Measurements were determined at least twice from the same region of both ears, with care taken not to include hair or folded pinna.

[3] = tested on: circulating cytokines; assay: LPS exposure in mice, ELISA of circulating cytokines; format: in vivo, Male C57BI/6 mice; conditions: single dose 30 minutes before LPS (20 mg/kg), blood two hours after LPS
Procedure: Male C57BI/6 mice were dosed with Compound 9 30 minutes before they were exposed to LPS (20 mg/kg). Two hours after the LPS exposure, blood was collected from the mice and an ELISA was conducted to determine the amount of circulating cytokines.

[4] = tested on: Primary rat cortical cultures; assay: LDH assay in primary rat cortical cultures; format: cell-based; conditions: 24 or 48 hours, various concentrations; FIG. 2
Procedure: Primary rat cortical cultures were placed in an incubator for 24 or 48 hours and treated with various concentrations of Compound 9. Then 20 μL of the culture media was removed for an LDH assay as described in Bergmeyer et al., Methods of Enzymatic Analysis, 3rd ed. (1983).

[5] = tested on: allergic dermatitis; assay: Allergic dermatitis, oxazolone (OXL) model, pinna thickness; format: in vivo, mice; conditions: single dose 100 mg/kg intraperitoneally, FIG. 5B
Procedure: To measure the efficacy of Compound 9 in treating allergic dermatitis, oxazolone (“OXL”) was applied (1.5%, 100 μL in acetone) to the shaved abdomens of mice. Seven days later, the thickness of the pinna of the OXL treated mice was determined. Then Compound 9 (100 mg/kg) or the vehicle (i.e., Captisol) was administered intraperitoneally to mice followed by topical application of OXL (1%, 20 μL) 30 min later to both the anterior and posterior portions of the right pinna. As a control, the left pinna received 20 μL of acetone (OXL excipient) to both the anterior and posterior portions. The thickness of the pinna of both ears was measured again 24 hours later. N=10 per group.

[6] = Aldehyde trapping (FIG. 1), MDA
[7] = tested on: radiation induced fibrosis; assay: Radiation induced fibrosis after 40 Gy irradiation; format: in vivo; conditions: hamsters subject to 40 Gy irradiation; FIG. 7
[8] = Aldehyde trapping (FIG. 1), HNE
[9] = in the presence of peptides and phospholipids

| SMILES | form of the MDA adducts [1] | reaction with MDA / trapping of MDA (formation of MDA adducts) [1] | further results |
| --- | --- | --- | --- |
| CC(C)(O)c1c(N)cnc2ccc(Cl)c(F)c12 [Compound 1, 2-(3-amino-6-chloro-5-fluoroquinolin-4-yl)propan-2-ol] | a majority of the adducts were bis-oxaminal | quickly react with MDA to form MDA adducts; also recorded: reacts and traps MDA | – |
| CC(C)(O)c1c(N)cnc2ccc(Cl)cc12 [Compound 2, 2-(3-amino-6-chloroquinolin-4-yl)propan-2-ol] | – | quickly react with MDA to form MDA adducts; also recorded: reacts and traps MDA | – |
| CC(C)(O)c1nc2ccc(Cl)cc2cc1N [Compound 9] | in both the imine form and the oxaminal form | reacted with MDA and formed MDA adducts; also recorded: reacts and traps MDA | efficacy against contact dermatitis [2]: effective; other chemokines, such as eotaxin, IL-12, IP-10, LIF, MCP-1, MIG, MIP, and RANTES [3]: decreased; anti-inflammatory cytokines, such as IL-10 ([3]; FIG. 4): elevated; proinflammatory cytokines, such as IL-5 and IL-1β, IL-17, and TNF ([3]; FIGS. 3 and 4): broad downregulation; also recorded: reduction; aldehyde-mediated cell death in neurons (LDH assay) [4]: prevented aldehyde-mediated cell death in neurons; efficacy against allergic dermatitis [5]: effective; reaction with and trapping of MDA ([6]; FIG. 1): rapidly reacts with and traps; also recorded: decrease aldehyde (e.g., MDA and HNE) concentration in a time-dependent manner; trapping of MDA [6, 9]: rapidly traps MDA and HNE; radiation induced fibrosis [7]: diminishes radiation induced fibrosis; reaction with and trapping of HNE ([8]; FIG. 1): rapidly reacts with and traps; also recorded: decrease aldehyde (e.g., MDA and HNE) concentration in a time-dependent manner; trapping of HNE [8, 9]: rapidly traps MDA and HNE |
| Cc1ccc(-c2nc3cc(N)c(C(C)(C)O)c(Cl)c3o2)cc1 [Compound 12, 2-(5-amino-7-chloro-2-p-tolylbenzoxazol-6-yl)propan-2-ol] | a majority of the adducts were bis-oxaminal | quickly react with MDA to form MDA adducts; also recorded: reacts and traps MDA | – |
| CC(C)(O)c1c(N)cc2onc(C3CC3)c2c1Cl [Compound 14, 2-(6-amino-4-chloro-3-cyclopropylbenzisoxazol-5-yl)propan-2-ol] | a majority of the adducts were bis-oxaminal | quickly react with MDA to form MDA adducts; also recorded: reacts and traps MDA | – |
| CC(C)(O)c1c(N)cc(Cl)c2c(C3CC3)noc12 [Compound 16, 2-(6-amino-4-chloro-3-cyclopropylbenzisoxazol-7-yl)propan-2-ol] | a majority of the adducts were bis-oxaminal | quickly react with MDA to form MDA adducts; also recorded: reacts and traps MDA | – |
